Measured values reported in US9434724B2, “Quinuclidines for modulating alpha 7 activity” (priority 2014, dated 2016).

Assays:
Human α7 NAChR = Human α7 NAChR (Homo sapiens (Human), UniProt P36544); test: Electrophysiology screen at 1 μM in Xenopus laevis oocytes; format: cell-based; conditions: 1 μM test compound; Imax = maximal current produced by 3 mM ACh
Experimental: Human α7 NAChR plasmid was prepared by GeneWiz from accession NM_000746.5. Human α7 NAChR mRNA was prepared by TriLink at a concentration near 1 μg/μL. The human α7 NAChR mRNA was diluted in sterile water to a working concentration near 10 ng/μL.
Oocytes were obtained from Xenopus laevis frogs and treated with collagenase by Ecocyte Bioscience. Oocytes were injected with the working concentration of α7 NAChR mRNA at a volume of 50 nL for a total of approximately 0.5 ng of α7 NAChR mRNA. Oocytes were maintained in Barth's solution at a temperature of 16° C. The Barth's solution was replaced daily.
Two-electrode voltage clamp recordings were made 3-14 days following mRNA injections at a holding voltage of −70 mV. The NAChR recordings were performed in Ca^++-free Ringer solution (115 mM NaCl, 2 mM KCl, 1.8 mM BaCl2, 5 mM HEPES; pH˜7.4) to limit Ca^++-activated chloride currents.
In all oocyte recordings, drug and wash solutions were applied using a custom-designed microcapillary “linear array” which allows rapid application of agonists. Currents were recorded on a PC-based computer (PClamp, Molecular Devices, Sunnyvale, Calif.). Responses were reported as (I/Imax), where I is the amount of current given by a selected concentration of drug and Imax is the amount of maximal current produced by a 3 mM solution of ACh.
Stocks of test compounds were prepared in DMSO. Test solutions in Ringer were prepared immediately before application of test compound (final DMSO concentration of 0.1%). The final concentration of test compound in the test solution was 1 μM. The test solution was perfused onto the oocyte until a peak current was recorded. There was approximately two minutes of wash time with only the Ringer solution between each application of agonist. Measurement of the test solution was repeated between 2 and 6 times with a two minute wash time between each application of test solution. An average of the currents for each test compound was used to define the response for the test compound.

[1] = Caco-2 permeability assay; format: in vitro ADME; conditions: human
Experimental: Caco-2 cells were obtained from American Tissue Culture Collection (Rockville, Md.). The cells were maintained in Modified Eagle's medium (MEM), containing 10% heat-inactivated fetal bovine serum (FCS) and 1% non-essential amino acids, in CO2 at 37° C. Cells were seeded on polycarbonate filter inserts (Millipore, CAT#PSHT 010 R5).
The cells were cultivated for 21-28 days prior to the transport experiments. The transepithelial electric resistance (TEER) and Lucifer Yellow permeability were checked routinely before and after the assay. Compounds were dissolved at 10 mM in 100% dimethyl sulfoxide (DMSO) and diluted for studies in Hank's Balanced Salt Solution (HBSS, Invitrogen, Cat#14025-092) with 25 mM HEPES, pH 7.4. Compounds were tested at 10 μM, and in both the apical-to-basolateral (A-B) and basolateral-to-apical (B-A) directions, at 37° C. for 90 min. At the end of incubation, donor samples were diluted 10-fold by assay buffer, then 60 μL of receiver and diluted-donor samples were mixed with 60 μL of acetonitrile, and analyzed by LC-MS/MS. The concentrations of the compounds were quantified by standard curve.

[2] = target: rat brain nicotinic receptor (α7 NAChR) (Rattus norvegicus (Rat), UniProt Q05941); format: binding; conditions: Protocol No. 2; [3H] α-Bungarotoxin 0.4 nM, rat brain P2 membrane
Sequence of rat brain nicotinic receptor (α7 NAChR) (Q05941 23-502 limits assumed): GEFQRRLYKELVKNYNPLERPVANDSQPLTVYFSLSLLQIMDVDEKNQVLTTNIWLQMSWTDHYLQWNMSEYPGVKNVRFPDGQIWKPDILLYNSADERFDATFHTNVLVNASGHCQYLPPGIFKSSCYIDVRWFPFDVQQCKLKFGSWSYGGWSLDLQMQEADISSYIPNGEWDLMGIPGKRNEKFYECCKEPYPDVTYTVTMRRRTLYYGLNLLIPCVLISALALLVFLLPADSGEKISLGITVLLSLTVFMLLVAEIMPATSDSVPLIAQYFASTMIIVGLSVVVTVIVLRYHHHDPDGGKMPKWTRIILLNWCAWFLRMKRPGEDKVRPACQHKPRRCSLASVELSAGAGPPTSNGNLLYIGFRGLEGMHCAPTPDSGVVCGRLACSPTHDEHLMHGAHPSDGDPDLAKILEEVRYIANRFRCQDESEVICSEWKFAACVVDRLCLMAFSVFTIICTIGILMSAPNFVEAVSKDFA

CYP2C9 = CYP2C9 (Homo sapiens (Human), UniProt P11712); test: Cytochrome P450 inhibition in human liver microsomes, CYP2C9; conditions: read-out: 2C9 IC50, Protocol 1
Sequence of CYP2C9 (P11712 whole entry): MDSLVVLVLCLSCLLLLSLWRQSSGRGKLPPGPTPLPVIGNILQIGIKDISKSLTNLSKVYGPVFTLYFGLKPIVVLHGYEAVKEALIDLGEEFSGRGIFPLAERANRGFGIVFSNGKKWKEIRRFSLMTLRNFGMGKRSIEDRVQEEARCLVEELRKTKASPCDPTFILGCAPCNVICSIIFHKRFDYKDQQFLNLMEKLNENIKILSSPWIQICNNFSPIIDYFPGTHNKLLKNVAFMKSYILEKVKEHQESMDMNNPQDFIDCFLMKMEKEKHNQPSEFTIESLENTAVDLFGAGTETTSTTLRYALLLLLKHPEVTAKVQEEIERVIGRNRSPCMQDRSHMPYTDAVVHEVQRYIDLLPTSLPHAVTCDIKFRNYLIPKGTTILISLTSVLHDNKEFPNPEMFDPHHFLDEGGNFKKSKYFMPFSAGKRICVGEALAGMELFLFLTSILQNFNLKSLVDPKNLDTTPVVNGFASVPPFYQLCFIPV

CYP2C19 = CYP2C19 (Homo sapiens (Human), UniProt P33261); test: Cytochrome P450 inhibition in human liver microsomes, CYP2C19; conditions: read-out: 2C19 IC50, Protocol 1
Sequence of CYP2C19 (P33261 whole entry): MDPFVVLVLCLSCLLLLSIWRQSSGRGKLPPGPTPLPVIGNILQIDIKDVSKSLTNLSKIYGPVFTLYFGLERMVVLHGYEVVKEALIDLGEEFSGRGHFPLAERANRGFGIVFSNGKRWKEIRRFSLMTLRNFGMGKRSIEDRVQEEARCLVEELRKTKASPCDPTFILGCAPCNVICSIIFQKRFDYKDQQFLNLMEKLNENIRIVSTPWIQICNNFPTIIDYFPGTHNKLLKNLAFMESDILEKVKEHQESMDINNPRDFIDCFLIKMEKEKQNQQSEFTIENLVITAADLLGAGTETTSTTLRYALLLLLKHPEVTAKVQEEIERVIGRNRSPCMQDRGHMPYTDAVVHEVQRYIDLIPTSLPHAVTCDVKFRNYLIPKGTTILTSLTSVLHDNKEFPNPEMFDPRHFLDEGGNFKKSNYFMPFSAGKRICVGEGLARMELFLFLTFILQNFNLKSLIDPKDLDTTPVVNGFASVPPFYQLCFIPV

CYP1A2 = CYP1A2 (Homo sapiens (Human), UniProt P05177); test: Cytochrome P450 inhibition in human liver microsomes, CYP1A2; conditions: read-out: 1A2 IC50, Protocol 1
Sequence of CYP1A2 (P05177 whole entry): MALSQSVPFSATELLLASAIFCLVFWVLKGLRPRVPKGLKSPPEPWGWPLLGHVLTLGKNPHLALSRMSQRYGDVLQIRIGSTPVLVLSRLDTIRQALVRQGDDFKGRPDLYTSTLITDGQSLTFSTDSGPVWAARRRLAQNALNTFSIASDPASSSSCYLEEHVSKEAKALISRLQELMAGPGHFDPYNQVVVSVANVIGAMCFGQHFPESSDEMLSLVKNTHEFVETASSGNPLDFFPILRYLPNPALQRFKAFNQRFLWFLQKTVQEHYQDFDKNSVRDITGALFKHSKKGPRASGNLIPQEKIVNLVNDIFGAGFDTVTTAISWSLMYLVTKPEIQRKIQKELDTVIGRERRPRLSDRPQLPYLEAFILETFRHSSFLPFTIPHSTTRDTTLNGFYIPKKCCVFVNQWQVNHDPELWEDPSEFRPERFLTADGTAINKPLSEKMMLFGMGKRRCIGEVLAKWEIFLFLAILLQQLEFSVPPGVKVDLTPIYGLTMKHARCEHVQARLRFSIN

CYP3A4 = CYP3A4 (Homo sapiens (Human), UniProt P08684); conditions: microsomes, 5 min
Sequence of CYP3A4 (P08684 whole entry): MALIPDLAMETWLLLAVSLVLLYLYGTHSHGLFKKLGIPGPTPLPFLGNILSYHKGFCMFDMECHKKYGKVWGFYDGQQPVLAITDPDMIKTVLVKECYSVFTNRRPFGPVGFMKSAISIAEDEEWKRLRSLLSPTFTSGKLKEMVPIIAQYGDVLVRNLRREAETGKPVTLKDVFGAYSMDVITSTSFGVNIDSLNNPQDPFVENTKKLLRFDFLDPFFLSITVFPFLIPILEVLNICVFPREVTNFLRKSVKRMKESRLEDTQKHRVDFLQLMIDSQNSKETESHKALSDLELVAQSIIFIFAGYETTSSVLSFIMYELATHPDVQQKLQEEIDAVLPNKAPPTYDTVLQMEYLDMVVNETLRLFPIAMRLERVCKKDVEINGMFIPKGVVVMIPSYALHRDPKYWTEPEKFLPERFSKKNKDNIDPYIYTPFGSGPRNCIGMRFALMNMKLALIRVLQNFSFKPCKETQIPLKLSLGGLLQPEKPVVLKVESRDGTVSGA

hERG channels = hERG channels (Homo sapiens (Human), UniProt Q12809); test: hERG inhibition assay (automated patch clamp, CHO cells); format: cell-based
Sequence of hERG channels (Q12809 whole entry): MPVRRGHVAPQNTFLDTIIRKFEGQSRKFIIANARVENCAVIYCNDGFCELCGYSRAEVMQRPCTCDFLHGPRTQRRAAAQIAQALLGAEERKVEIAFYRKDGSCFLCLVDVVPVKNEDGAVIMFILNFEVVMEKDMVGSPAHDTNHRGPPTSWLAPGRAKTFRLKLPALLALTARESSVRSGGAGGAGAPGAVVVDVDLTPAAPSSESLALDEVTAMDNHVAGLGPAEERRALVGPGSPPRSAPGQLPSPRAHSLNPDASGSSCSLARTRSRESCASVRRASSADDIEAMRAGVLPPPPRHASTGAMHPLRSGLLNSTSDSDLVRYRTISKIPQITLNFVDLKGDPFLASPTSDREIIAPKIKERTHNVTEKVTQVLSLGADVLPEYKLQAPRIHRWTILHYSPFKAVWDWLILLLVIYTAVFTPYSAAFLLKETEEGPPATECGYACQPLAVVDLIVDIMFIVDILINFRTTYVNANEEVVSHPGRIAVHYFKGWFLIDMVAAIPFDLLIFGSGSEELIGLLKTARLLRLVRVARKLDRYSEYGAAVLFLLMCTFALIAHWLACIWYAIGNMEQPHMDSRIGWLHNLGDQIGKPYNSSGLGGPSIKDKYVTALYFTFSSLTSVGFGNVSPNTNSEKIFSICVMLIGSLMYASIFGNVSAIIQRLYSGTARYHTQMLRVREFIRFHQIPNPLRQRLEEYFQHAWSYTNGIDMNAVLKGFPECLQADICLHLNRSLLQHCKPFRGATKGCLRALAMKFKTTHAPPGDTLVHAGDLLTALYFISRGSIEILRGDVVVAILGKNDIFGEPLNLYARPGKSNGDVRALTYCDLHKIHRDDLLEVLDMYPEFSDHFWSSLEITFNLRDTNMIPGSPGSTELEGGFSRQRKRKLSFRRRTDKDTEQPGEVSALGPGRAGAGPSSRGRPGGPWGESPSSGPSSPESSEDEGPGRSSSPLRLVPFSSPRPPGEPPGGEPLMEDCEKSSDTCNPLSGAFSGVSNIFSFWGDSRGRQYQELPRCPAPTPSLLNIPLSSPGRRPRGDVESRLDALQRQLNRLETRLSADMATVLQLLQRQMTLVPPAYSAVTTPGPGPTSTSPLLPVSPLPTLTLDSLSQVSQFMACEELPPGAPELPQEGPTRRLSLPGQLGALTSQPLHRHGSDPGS
Experimental: hERG study was conducted with an automated patch clamp machine, Qpatch-48HT (Sophion Biosciences, Denmark). Cultured CHO cells stably expressing hERG channels (provided by Sophion Biosciences, Denmark) were harvested from culture flasks of 70-90% cell confluence rate and prepared as cell suspension with a cell density of 3-8×10^6 cells/mL in serum-free media (CHO-S-SFM II, cat#12052 Invitrogen; 25 mM HEPES). Cells in such condition were placed into a Qpatch cell stir chamber and used within 4 hours.
For each run, cells were first spun down by the built-in Qpatch centrifuge and re-suspended in an extracellular solution (in mM, 2 CaCl2, 1 MgCl2, 4 KCl, 145 NaCl, 10 Glucose, 10 HEPES, pH 7.4, osmolarity ˜305 mOsm). Qplate-48 that holds one cell in each of its 48 channels for the later voltage-clamped assay were primed with the extracellular solution and intracellular solution (in mM, 5.4 CaCl2, 1.75 MgCl2, 120 KCl, 10 HEPES, 5 EGTA, 4 NaATP, pH 7.25, Osmolarity ˜280-295 mOsm). Cells were dispatched by Qpatch robotic dispensing guns into each Qplate channel and went through the process of giga-ohm sealing and whole cell configuration. Whole-cell recordings were performed in voltage-clamp mode at a holding potential of −80 mV. […]

Sequence of Human α7 NAChR (P36544 23-502 limits assumed): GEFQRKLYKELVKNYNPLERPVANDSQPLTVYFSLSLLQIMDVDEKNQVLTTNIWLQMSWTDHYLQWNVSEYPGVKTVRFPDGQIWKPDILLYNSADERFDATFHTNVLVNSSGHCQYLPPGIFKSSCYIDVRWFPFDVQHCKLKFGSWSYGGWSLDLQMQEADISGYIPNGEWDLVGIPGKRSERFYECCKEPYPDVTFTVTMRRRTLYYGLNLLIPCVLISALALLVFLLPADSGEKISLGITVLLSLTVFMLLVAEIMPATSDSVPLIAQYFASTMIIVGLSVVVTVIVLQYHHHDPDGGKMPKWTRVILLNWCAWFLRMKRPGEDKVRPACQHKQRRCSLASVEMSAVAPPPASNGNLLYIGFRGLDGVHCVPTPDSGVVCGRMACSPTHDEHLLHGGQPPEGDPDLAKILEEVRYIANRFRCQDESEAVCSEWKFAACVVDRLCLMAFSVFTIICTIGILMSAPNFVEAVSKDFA

What does the source list for `COc1c(OCC(F)(F)F)ccc2[nH]cc(C(=O)OCC34CCN(CC3)CC4)c12` [Compound 88, quinuclidin-4-ylmethyl 4-methoxy-5-(2,2,2-trifluoroethoxy)-1H-indole-3-carboxylate]?
I/Imax (Human α7 NAChR): 0.185; efflux ratio at 90 min, 10 μM ([1]; pH 7.4, Caco-2, 10 μM): 7.86; Papp A→B at 90 min, 10 μM ([1]; pH 7.4, Caco-2, apical-to-basolateral, 10 μM): 3.25 ×10⁻⁶ cm/s; Papp B→A at 90 min, 10 μM ([1]; pH 7.4, Caco-2, basolateral-to-apical, 10 μM): 25.5 ×10⁻⁶ cm/s; IC50 [2]: 0.211 µM; Ki [2]: 0.356 µM

With `O=C(OCC12CCN(CC1)CC2)c1c[nH]c2cc(O)cc(Cl)c12` [Compound 46, quinuclidin-4-ylmethyl 4-chloro-6-hydroxy-1H-indole-3-carboxylate] as the compound, how does the IC50 (CYP2C9) read?
Its IC50 is > 10 µM.

And the IC50 (CYP2C19)?
Its IC50 is > 10 µM.

What about the IC50 (CYP1A2) of the same compound?
Its IC50 is > 10 µM.

And the IC50 (CYP3A4)?
The IC50 was > 10 µM.

What about the IC50 (hERG channels) of the same compound?
Its IC50 is > 30 µM.

What does the source list for `Cc1cc(Cl)c2c(C(=O)OCC34CCN(CC3)CC4)c[nH]c2c1.Cl` [Compound 65, quinuclidin-4-ylmethyl 4-chloro-6-methyl-1H-indole-3-carboxylate hydrochloride]?
I/Imax (Human α7 NAChR): 0.212; IC50 (hERG channels): 2.43 µM
